Measured values: ChEMBL document CHEMBL1127588, “A structure-activity relationship study of benzylic modifications of 4-[1-(1-naphthyl)ethyl]-1H-imidazoles on alpha 1- and alpha 2-adrenergic receptors” (J Med Chem, 1994)

Legend:
[1] = molecular target: T1, Adrenergic receptor alpha-2 (Rattus norvegicus, UniProt P22086+P19328+P22909); experiment: Tested for its binding affinity against alpha-2 receptor in rat brain membrane; type: cell membranes
T1 sequence (P22086 whole entry): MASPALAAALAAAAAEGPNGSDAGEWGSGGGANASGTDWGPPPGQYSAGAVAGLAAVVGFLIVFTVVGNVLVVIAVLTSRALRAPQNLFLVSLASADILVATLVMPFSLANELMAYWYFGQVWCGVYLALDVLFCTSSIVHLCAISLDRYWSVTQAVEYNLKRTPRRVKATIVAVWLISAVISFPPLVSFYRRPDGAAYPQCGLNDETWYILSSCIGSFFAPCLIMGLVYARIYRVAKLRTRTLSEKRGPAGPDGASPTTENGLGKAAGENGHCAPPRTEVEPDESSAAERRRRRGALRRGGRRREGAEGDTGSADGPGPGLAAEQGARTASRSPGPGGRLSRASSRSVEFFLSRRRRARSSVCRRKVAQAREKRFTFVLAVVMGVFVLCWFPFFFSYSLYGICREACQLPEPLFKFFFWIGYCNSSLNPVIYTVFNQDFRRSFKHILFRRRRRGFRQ
T1 sequence (P19328 whole entry): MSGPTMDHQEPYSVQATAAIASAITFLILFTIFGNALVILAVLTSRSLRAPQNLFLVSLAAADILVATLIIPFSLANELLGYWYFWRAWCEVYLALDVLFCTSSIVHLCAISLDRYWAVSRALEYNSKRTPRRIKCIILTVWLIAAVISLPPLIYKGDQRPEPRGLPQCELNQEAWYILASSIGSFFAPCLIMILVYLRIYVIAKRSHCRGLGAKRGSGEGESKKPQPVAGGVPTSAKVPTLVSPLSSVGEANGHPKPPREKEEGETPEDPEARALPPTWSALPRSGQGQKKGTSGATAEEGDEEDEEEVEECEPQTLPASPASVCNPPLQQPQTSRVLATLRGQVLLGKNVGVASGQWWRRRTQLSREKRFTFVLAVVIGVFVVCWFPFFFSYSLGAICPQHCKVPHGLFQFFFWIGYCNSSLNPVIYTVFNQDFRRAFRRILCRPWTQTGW
T1 sequence (P22909 whole entry): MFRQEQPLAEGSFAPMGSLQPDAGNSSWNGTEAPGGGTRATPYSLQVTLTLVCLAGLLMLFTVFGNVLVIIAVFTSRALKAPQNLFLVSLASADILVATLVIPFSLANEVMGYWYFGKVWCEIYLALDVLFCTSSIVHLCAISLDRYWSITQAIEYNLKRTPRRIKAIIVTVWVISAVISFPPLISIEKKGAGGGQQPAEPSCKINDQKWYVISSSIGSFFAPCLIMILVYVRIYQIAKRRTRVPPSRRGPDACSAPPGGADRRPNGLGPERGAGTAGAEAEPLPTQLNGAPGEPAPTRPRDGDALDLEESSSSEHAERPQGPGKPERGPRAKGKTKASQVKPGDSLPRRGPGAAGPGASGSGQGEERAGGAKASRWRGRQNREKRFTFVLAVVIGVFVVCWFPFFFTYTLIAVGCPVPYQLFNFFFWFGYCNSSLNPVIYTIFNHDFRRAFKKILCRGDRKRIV

[2] = molecular target: T2, Adrenergic receptor alpha-1 (Homo sapiens, UniProt P35348+P25100+P35368); experiment: Tested for its inhibitory activity against alpha-1 adrenoceptor in guinea pig ileum; type: tissue-based, Cavia porcellus; conditions: target entry is the homologue from another species
T2 sequence (P35348 whole entry): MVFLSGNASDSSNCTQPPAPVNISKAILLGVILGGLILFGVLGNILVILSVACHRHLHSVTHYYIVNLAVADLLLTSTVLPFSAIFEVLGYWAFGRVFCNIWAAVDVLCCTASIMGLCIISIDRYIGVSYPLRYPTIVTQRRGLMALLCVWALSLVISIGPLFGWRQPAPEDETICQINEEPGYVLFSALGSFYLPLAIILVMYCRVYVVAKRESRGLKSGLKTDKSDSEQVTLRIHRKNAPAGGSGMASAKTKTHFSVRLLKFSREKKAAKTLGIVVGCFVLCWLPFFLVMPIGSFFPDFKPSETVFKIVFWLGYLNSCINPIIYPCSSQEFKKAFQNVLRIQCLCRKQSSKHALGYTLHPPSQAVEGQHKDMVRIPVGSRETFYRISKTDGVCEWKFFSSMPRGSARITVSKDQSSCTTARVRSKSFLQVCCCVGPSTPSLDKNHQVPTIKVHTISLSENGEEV
T2 sequence (P25100 whole entry): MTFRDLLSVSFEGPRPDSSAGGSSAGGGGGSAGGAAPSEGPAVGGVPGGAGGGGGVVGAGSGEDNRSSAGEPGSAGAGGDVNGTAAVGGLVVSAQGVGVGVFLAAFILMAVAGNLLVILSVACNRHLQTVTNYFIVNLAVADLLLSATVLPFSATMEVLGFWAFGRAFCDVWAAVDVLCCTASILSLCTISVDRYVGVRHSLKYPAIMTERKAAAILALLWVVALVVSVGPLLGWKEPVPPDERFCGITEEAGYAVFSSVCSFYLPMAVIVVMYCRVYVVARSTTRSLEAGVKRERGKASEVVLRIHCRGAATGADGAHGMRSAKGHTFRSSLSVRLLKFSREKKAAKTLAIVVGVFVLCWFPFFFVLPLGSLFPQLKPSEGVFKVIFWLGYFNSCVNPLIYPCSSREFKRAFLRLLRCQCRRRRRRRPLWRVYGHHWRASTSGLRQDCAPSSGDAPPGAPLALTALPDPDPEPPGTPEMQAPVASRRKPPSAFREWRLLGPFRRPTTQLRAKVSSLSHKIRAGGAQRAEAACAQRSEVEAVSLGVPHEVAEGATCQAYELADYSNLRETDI
T2 sequence (P35368 whole entry): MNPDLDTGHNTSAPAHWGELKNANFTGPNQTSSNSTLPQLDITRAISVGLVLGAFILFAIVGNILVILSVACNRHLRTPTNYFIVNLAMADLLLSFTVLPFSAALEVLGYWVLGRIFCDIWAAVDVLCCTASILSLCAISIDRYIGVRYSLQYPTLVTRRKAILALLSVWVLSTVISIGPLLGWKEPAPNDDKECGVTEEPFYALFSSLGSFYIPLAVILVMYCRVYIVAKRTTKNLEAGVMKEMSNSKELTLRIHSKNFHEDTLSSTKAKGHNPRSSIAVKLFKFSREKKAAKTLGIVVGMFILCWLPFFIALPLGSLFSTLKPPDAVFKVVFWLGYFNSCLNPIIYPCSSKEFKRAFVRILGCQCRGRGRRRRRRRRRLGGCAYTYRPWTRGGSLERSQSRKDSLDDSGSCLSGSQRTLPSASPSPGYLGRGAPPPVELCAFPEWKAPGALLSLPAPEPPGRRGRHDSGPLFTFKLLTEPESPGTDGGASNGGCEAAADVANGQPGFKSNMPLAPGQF

Work on CC(c1c[nH]cn1)c1cccc2ccccc12 (stereo in doubt; S-(+)-2) yielded a Ki [1] of 11 nM and an EC50 [2] of 8273 nM.
Cc1cccc(C(C)c2c[nH]cn2)c1C (stereo not drawn) [MEDETOMIDINE] showed a Ki [1] of 19 nM and an EC50 [2] of 1165 nM.
In the case of Cl.c1ccc2c(Cc3c[nH]cn3)cccc2c1, the Ki [1] is reported as 68 nM and the EC50 [2] is reported as 2113 nM.
COC(c1c[nH]cn1)c1cccc2ccccc12.Cl (stereo not drawn) was tested, and the Ki [1] was 8582 nM.
CC(c1c[nH]cn1)c1cccc2ccccc12 (stereo in doubt; 2) showed a Ki [1] of 17 nM and an EC50 [2] of 5793 nM.
In the case of CC(c1c[nH]cn1)c1cccc2ccccc12 (stereo in doubt; S-(-)-2), the Ki [1] is reported as 24 nM and the EC50 [2] is reported as 10814 nM.
In the case of Cl.OC(c1c[nH]cn1)c1cccc2ccccc12 (stereo not drawn), the Ki [1] is reported as 8810 nM and the EC50 [2] is reported as 12692 nM.
